Experimental data published in the supplement of paper PMC10307832.

compound: COc1cccc2cc(-c3nc([C@H]4CC[C@H](C(=O)O)CC4)n4ncnc(N)c34)[nH]c12 [OSI-027] + Cc1cc(Nc2cc(N3CCN(C)CC3)nc(Sc3ccc(NC(=O)C4CC4)cc3)n2)n[nH]1 [Tozasertib] (partner 0.1 µM); assay: relative viability (nuclei count vs DMSO), 5 days (fraction); higher = more cells survive; settings: first compound 0.01 µM
How it was run: (§1)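 Lung cancer cell lines were seeded in 1536-well plates and dosed by pin tool the next day, with either a single drug or a fixed anchor-drug dose combined with five library-drug doses (not always all listed) spaced in √10 steps. Five days later, one step fixed the cells and stained their nuclei (final 0.05% Triton X-100, 1% formaldehyde, 1 ug/ml Hoechst), and nuclei were counted on 4× images. Relative viability is the nuclei count in treated wells divided by the count in vehicle wells, and each value is the median of duplicate plates.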

Compared with SK-MES-1, NCI-H441 is lower in relative viability: 0.923 for the first, 0.625 for the second.

HCC-78 gave a relative viability of 0.506.

same assay, conditions: first compound 0.03162 µM

First: SW 900
Second: SK-MES-1
The relative viability of the first is lower: 0.548 for the first, 0.842 for the second.

First: NCI-H441
Second: HCC-78
The relative viability of the first is higher: 0.72 for the first, 0.374 for the second.

same assay, conditions: first compound 0.1 µM

Going from SW 900 to SK-MES-1, the relative viability rises from 0.493 to 0.807.

Compared with NCI-H441, HCC-78 is lower in relative viability: 0.629 for the first, 0.435 for the second.

same assay, conditions: first compound 0.3162 µM

Compared with SW 900, SK-MES-1 is higher in relative viability: 0.589 for the first, 0.744 for the second.

Compared with NCI-H441, HCC-78 is lower in relative viability: 0.535 for the first, 0.334 for the second.

same assay, conditions: first compound 1 µM

Going from SW 900 to SK-MES-1, the relative viability falls from 0.483 to 0.402.

Going from NCI-H441 to HCC-78, the relative viability falls from 0.489 to 0.241.

compound: CCCS(=O)(=O)Nc1ccc(F)c(C(=O)c2c[nH]c3ncc(-c4ccc(Cl)cc4)cc23)c1F [Vemurafenib] + CC(=O)Nc1cccc(-n2c(=O)n(C3CC3)c(=O)c3c(Nc4ccc(I)cc4F)n(C)c(=O)c(C)c32)c1 [Trametinib] (partner 0.02 µM); assay: as above; settings: first compound 0.03162 µM
How it was run: as §1

First: SW 900
Second: SK-MES-1
The relative viability of the first is higher: 0.939 for the first, 0.569 for the second.

Going from NCI-H441 to HCC-78, the relative viability rises from 0.434 to 0.783.

same assay, conditions: first compound 0.1 µM

Going from SW 900 to NCI-H441, the relative viability falls from 0.593 to 0.431.

Cell Line HCC-78 has a relative viability of 0.609.

same assay, conditions: first compound 0.3162 µM

Going from SW 900 to SK-MES-1, the relative viability falls from 0.778 to 0.589.

First: NCI-H441
Second: HCC-78
The relative viability of the first is lower: 0.611 for the first, 1.06 for the second.

same assay, conditions: first compound 1 µM

Going from SW 900 to SK-MES-1, the relative viability falls from 0.868 to 0.763.

Going from NCI-H441 to HCC-78, the relative viability rises from 0.472 to 0.838.

compound: COc1cccc2cc(-c3nc([C@H]4CC[C@H](C(=O)O)CC4)n4ncnc(N)c34)[nH]c12 [OSI-027] + O=C(CCCCCCC(=O)Nc1ccccc1)NO [Vorinostat] (partner 1 µM); assay: as above; settings: first compound 0.01 µM
How it was run: as §1

First: SW 900
Second: SK-MES-1
The relative viability of the first is lower: 0.545 for the first, 1.21 for the second.

Going from NCI-H441 to HCC-78, the relative viability falls from 0.837 to 0.477.

same assay, conditions: first compound 0.03162 µM

Going from SW 900 to SK-MES-1, the relative viability rises from 0.592 to 1.08.

Compared with NCI-H441, HCC-78 is lower in relative viability: 0.77 for the first, 0.326 for the second.

same assay, conditions: first compound 0.1 µM

Compared with SW 900, SK-MES-1 is higher in relative viability: 0.386 for the first, 0.972 for the second.

First: NCI-H441
Second: HCC-78
The relative viability of the first is higher: 0.757 for the first, 0.384 for the second.

same assay, conditions: first compound 0.3162 µM

Going from SW 900 to SK-MES-1, the relative viability rises from 0.421 to 0.913.

First: NCI-H441
Second: HCC-78
The relative viability of the first is higher: 0.741 for the first, 0.329 for the second.

same assay, conditions: first compound 1 µM

Going from SW 900 to SK-MES-1, the relative viability rises from 0.206 to 0.593.

First: NCI-H441
Second: HCC-78
The relative viability of the first is higher: 0.431 for the first, 0.268 for the second.

compound: COc1cccc2cc(-c3nc([C@H]4CC[C@H](C(=O)O)CC4)n4ncnc(N)c34)[nH]c12 [OSI-027] + Nc1nc2[nH]cc(CCc3ccc(C(=O)N[C@@H](CCC(=O)O)C(=O)O)cc3)c2c(=O)[nH]1 [Pemetrexed] (partner 0.2 µM); assay: as above; settings: first compound 0.01 µM
How it was run: as §1

Going from SW 900 to SK-MES-1, the relative viability rises from 0.368 to 0.998.

Compared with NCI-H441, HCC-78 is higher in relative viability: 0.259 for the first, 0.954 for the second.

same assay, conditions: first compound 0.03162 µM

First: SW 900
Second: SK-MES-1
The relative viability of the first is lower: 0.56 for the first, 0.919 for the second.

Going from NCI-H441 to HCC-78, the relative viability rises from 0.213 to 0.918.

same assay, conditions: first compound 0.1 µM

First: SW 900
Second: SK-MES-1
The relative viability of the first is lower: 0.477 for the first, 0.866 for the second.

First: NCI-H441
Second: HCC-78
The relative viability of the first is lower: 0.285 for the first, 0.911 for the second.

same assay, conditions: first compound 0.3162 µM

Going from SW 900 to SK-MES-1, the relative viability rises from 0.508 to 0.782.

Compared with NCI-H441, HCC-78 is higher in relative viability: 0.255 for the first, 0.913 for the second.

same assay, conditions: first compound 1 µM

First: SW 900
Second: SK-MES-1
The relative viability of the first is higher: 0.406 for the first, 0.359 for the second.

Going from NCI-H441 to HCC-78, the relative viability rises from 0.251 to 0.887.
